Data published in ChEMBL document CHEMBL1126371, “Indazole and indoline as aromatic bioisosteres in the imidazole class of serotonin 5-HT3 receptor antagonists” (Bioorg Med Chem Lett, 1992).
Blank lines part the entries; values can stand above or below the molecule they belong to. Activity calls are given as the source filed them. The rule behind the calls is not given here.

Key:
Rattus norvegicus [1] = test: Time required to achieve 50% recovery of Bezold-Jarisch reflex in 9 rats at a dose of 6 ug/kg, iv; type: functional
Rattus norvegicus [2] = test: Dose required for inhibition of bradycardia induced by a submaximal dose (iv) of 5-HT in 7 rats; type: functional; settings: read-out: ID50 (the source's name)
Rattus norvegicus [3] = test: Dose required for inhibition of bradycardia induced by a submaximal dose (iv) of 5-HT in 8 rats; type: functional; settings: read-out: ID50 (the source's name)
Rattus norvegicus [4] = test: Dose required for inhibition of bradycardia induced by a submaximal dose (iv) of 5-HT in 6 rats; type: functional; settings: read-out: ID50 (the source's name)
Rattus norvegicus [5] = test: Dose required for inhibition of bradycardia induced by a submaximal dose (iv) of 5-HT in 3 rats; type: functional; settings: read-out: ID50 (the source's name)
Mustela putorius furo [6] = test: Reduction in the number of episodes of emesis in 4 ferrets at a dose of 0.5 mg/kg, po; type: functional
Mustela putorius furo [7] = test: Reduction in the latency period to the first episode in ferret at a dose of 0.01 mg/kg, po; type: functional
[8] = molecular target: Serotonin 2 (5-HT2) receptor (Rattus norvegicus) (UniProt P30994+P08909+P14842); test: Tested for the effect on binding at 5-hydroxytryptamine 2 receptor; No activity; type: protein assay
[9] = molecular target: T1, 5-hydroxytryptamine receptor 2C (Rattus norvegicus) (UniProt P08909); test: Tested for the effect on binding at 5-hydroxytryptamine 1C receptor; No activity
T1 sequence (whole entry): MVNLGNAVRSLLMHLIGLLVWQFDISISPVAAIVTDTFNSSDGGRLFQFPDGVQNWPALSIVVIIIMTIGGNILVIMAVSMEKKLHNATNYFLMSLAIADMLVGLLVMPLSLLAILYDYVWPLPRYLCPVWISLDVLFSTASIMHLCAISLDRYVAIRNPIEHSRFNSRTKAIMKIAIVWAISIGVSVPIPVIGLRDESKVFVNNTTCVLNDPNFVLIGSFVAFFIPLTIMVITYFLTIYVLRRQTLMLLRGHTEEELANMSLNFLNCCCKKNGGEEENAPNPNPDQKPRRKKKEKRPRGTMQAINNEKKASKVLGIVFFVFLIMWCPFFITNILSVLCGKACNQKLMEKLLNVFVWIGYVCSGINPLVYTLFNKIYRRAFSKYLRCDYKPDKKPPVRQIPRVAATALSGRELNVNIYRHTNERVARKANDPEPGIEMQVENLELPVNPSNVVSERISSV

[10] = molecular target: 5-hydroxytryptamine receptor 4 (Rattus norvegicus) (UniProt Q62758); test: Tested for the effect on binding at 5-hydroxytryptamine 4 receptor; No activity
[11] = molecular target: 5-hydroxytryptamine receptor 1D (Rattus norvegicus) (UniProt P28565); test: Tested for the effect on binding at 5-hydroxytryptamine 1D receptor; No activity
[12] = molecular target: Serotonin 3 (5-HT3) receptor; test: Tested for antagonistic activity on 5-hydroxytryptamine 3 receptor mediated effects of 5-HT in guinea pig isolated ileum; type: functional, tissue-based, Cavia porcellus
[13] = molecular target: T2, 5-hydroxytryptamine receptor 1A (Rattus norvegicus) (UniProt P19327); test: Tested for the effect on binding at 5-hydroxytryptamine 1A receptor; No activity
T2 sequence (whole entry): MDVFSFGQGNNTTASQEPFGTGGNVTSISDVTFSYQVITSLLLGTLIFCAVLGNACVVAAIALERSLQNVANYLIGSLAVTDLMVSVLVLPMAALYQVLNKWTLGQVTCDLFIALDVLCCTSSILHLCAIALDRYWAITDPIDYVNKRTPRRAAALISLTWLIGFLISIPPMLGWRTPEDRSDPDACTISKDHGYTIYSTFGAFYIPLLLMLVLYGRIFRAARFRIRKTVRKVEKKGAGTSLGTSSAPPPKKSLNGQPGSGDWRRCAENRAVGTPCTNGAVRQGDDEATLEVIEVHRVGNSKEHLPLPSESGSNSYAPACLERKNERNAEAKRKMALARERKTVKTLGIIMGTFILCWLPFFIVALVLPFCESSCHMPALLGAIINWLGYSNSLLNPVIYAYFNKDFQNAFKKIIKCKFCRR

Mustela putorius furo [14] = test: Reduction in the number of episodes of emesis in ferrets at a dose of 0.01 mg/kg, po; type: functional
Rattus norvegicus [15] = test: Percent maximum inhibition against Bezold-Jarisch reflex in 4 rats at a dose of 6 ug/kg, iv, after 5 min; type: functional
[16] = molecular target: Alpha-2 adrenergic receptor (Rattus norvegicus); test: Affinity at Alpha-2 adrenergic receptor in rat brain
Rattus norvegicus [17] = test: Time required to achieve 50% recovery of Bezold-Jarisch reflex in 4 rats at a dose of 6 ug/kg, iv; type: functional
Mustela putorius furo [18] = test: Reduction in the latency period to the first episode in ferret at a dose of 0.5 mg/kg, po; type: functional
Rattus norvegicus [19] = test: Dose required for inhibition of bradycardia induced by a submaximal dose (iv) of 5-HT in 4 rats; type: functional; settings: read-out: ID50 (the source's name)
Rattus norvegicus [20] = test: Dose required for inhibition of bradycardia induced by a submaximal dose (iv) of 5-HT in 5 rats; type: functional; settings: read-out: ID50 (the source's name)
Rattus norvegicus [21] = test: Time required to achieve 50% recovery of Bezold-Jarisch reflex in 5 rats at a dose of 6 ug/kg, iv; type: functional
Rattus norvegicus [22] = test: Percent maximum inhibition against Bezold-Jarisch reflex in 5 rats at a dose of 6 ug/kg, iv; type: functional

Chain of 5-hydroxytryptamine receptor 4 (Rattus norvegicus) (Q62758 whole entry): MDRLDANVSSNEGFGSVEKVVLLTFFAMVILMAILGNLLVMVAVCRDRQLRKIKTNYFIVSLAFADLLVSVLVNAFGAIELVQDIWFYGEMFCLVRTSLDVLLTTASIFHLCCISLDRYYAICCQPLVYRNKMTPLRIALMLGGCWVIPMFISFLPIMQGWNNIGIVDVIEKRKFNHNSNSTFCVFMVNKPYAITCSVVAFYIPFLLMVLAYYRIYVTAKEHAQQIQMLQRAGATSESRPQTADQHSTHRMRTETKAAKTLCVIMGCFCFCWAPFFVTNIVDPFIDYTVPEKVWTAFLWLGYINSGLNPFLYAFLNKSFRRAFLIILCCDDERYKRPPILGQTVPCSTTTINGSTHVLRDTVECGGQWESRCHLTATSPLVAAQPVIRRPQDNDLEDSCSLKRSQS
Chain of 5-hydroxytryptamine receptor 1D (Rattus norvegicus) (P28565 whole entry): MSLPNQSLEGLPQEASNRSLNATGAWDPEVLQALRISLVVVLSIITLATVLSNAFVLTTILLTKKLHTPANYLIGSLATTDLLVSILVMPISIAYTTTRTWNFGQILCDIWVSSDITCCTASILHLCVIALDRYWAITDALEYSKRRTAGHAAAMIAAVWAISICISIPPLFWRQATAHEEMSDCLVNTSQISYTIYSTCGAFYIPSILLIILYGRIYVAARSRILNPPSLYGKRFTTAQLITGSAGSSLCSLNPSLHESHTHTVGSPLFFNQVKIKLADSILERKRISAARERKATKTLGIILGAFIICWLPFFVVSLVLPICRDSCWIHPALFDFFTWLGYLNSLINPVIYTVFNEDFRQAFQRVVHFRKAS
Chain of Serotonin 2 (5-HT2) receptor (Rattus norvegicus) (P14842 whole entry, looked up, one chain of several): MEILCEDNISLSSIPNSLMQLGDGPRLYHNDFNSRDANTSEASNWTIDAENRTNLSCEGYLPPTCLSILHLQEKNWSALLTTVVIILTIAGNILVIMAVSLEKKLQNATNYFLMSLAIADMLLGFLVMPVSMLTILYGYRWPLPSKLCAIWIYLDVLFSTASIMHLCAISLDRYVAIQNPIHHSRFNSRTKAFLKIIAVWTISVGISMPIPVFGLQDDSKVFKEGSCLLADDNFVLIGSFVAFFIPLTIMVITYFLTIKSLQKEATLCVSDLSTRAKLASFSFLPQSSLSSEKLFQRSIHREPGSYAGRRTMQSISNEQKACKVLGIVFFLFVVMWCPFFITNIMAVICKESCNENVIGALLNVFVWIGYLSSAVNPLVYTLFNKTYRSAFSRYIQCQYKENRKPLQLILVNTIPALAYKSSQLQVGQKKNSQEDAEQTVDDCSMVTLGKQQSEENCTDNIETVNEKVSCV
Chain of Serotonin 2 (5-HT2) receptor (Rattus norvegicus) (P30994 whole entry, looked up, one chain of several): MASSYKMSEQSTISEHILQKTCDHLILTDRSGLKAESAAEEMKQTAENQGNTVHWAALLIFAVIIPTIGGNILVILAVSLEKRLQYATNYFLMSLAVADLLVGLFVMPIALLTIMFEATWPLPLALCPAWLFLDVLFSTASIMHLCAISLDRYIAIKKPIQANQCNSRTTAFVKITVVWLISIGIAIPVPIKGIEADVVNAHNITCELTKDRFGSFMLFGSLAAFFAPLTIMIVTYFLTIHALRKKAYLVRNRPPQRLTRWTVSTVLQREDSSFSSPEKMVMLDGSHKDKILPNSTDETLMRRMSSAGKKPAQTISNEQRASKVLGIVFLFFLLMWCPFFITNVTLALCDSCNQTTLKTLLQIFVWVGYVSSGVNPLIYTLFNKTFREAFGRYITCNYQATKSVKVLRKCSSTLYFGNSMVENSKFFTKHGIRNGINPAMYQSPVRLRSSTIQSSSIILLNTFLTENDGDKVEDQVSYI

Compound: CN1C2CCCC1CC(NC(=O)c1nn(C)c3ccccc13)C2 (centres undefined) [GRANISETRON]
- Duration (Rattus norvegicus [1]): 46 min

Compound: COc1ccccc1NC(=O)NC1CC2CCC(C1)N2C (centres undefined)
- ED50 (Rattus norvegicus [2]): 2.5 µg/kg

Compound: CN1C2CCC1CC(NC(=O)N1CC(C)(C)c3ccccc31)C2 (centres undefined)
- ED50 (Rattus norvegicus [3]): 0.67 µg/kg

Compound: Cc1[nH]cnc1CCC(=O)c1nn(C)c2ccccc12
- ED50 (Rattus norvegicus [4]): 3.1 µg/kg

Compound: CC1(C)CN(C(=O)CCc2c[nH]cn2)c2ccccc21
- ED50 (Rattus norvegicus [5]): 4.2 µg/kg

- Activity [8]: inactive
- Activity [9]: inactive
- Activity [10]: inactive
- Activity [11]: inactive
- pA2 [12]: 8.1
- Activity [13]: inactive
- Log Ki [16]: -6.2
Compound: Cc1[nH]cnc1CCC(=O)N1CC(C)(C)c2ccccc21
- Reduction (Mustela putorius furo [6]): 1.3
- Latency time (Mustela putorius furo [7]): 22.5 min
- Reduction (Mustela putorius furo [14]): 7.7
- inhibition in vivo at 0.006 mg/kg (Rattus norvegicus [15]): 91%
- Duration (Rattus norvegicus [17]): 66 min
- Latency time (Mustela putorius furo [18]): 90.5 min
- ED50 (Rattus norvegicus [19]): 2.2 µg/kg

Compound: COc1ccccc1NC(=O)CCc1c[nH]cn1
- ED50 (Rattus norvegicus [20]): 35 µg/kg

Compound: Cc1nccn1CC1CCc2c(c3ccccc3n2C)C1=O (centres undefined) [ONDANSETRON]
- Duration (Rattus norvegicus [21]): 14 min
- inhibition in vivo at 0.006 mg/kg (Rattus norvegicus [22]): 68%
- ED50 (Rattus norvegicus [19]): 3.6 µg/kg

Compound: COc1ccccc1NC(=O)CCc1[nH]cnc1C
- ED50 (Rattus norvegicus [20]): 20 µg/kg
